Data published in patent US9446084B2, “Use of free radical scavengers for protecting and treating skin and hair damages caused by chemotherapy” (Coty Prestige Lancaster Group GmbH, priority 2005, dated 2016).

Key:
[1] = RPF 'is known'; cited from earlier work
[2] = Radical protection factor (RPF) by electron spin resonance (ESR) against a test radical; format: biochemical
Description: S2=signal amplitude of the antioxidant.
As has already been described, the radical protection factor (RPF) determines the activity of a substance for binding free radicals against a test substance. This test substance consists of a highly reactive, semi-stable radical which reacts with all known antioxidation agents. Such radicals include nitroxides such as proxo (2.2,5.5-tetramethyl-1-dihydropyrrolinoxy-nitroxide), tempol (2.2,6.6-tetramethyl-1-piperidinoxy-4-ol-nitroxide), DTBN (di-tert-butyl-nitroxide or preferably DPPH (1.1-diphenyl-2-picryl-hydrazyl.
The RPF is measured in such a way that the signal amplitudes of the test radical created by electron spin resonance (ESR/EPR) are measured before and after mixing with an antioxidation agent/scavenger, and the RPF is calculated from this.
Ind. […] Here, based on the known concentration of the test substance (here: DPPH) or the number of its free radicals (radicals per ml), a signal amplitude S1 is measured using an ESR spectrometer. The test radical is dissolved in the same way as the antioxidation agent in a (e.g. 0.1 m) water/alcohol solution. Then the signal amplitude S2 of the antioxidation agent is measured. The normalised difference between the two signal amplitudes is the reduction factor RF RF=(S1-S2)/S1. The result of the radical reduction of the test substance RC×RF is normalised in relation to the quantity of the product input PI (mg/ml). Here, the RC is the quantity of the test substance, i.e. the known number of radicals in the test substance. The radical protection factor is calculated according to the following equation: […]
The radical protection factor can be determined using an ESR spectrometer (GALENUS GmbH, Berlin, Germany), and is a value for labelling products with regard to their ability to bind free radicals. The procedure is an in-vitro procedure, in which no individual properties of the user influence the antioxidants.

## Cc1c(C)c2c(c(C)c1O)CCC(C)(CCCC(C)CCCC(C)CCCC(C)C)O2 (racemic) [DL-α-tocopherol]
[1]
  RPF known for standard antioxidation agents: 41200 ×10^14 radicals/mg

## CC1=C(/C=C/C(C)=C/C=C/C(C)=C/CO)C(C)(C)CCC1 [all-trans-retinol]
[1]
  RPF known for standard antioxidation agents: 827 ×10^14 radicals/mg

## CC(=O)OC/C=C(C)/C=C/C=C(C)/C=C/C1=C(C)CCCC1(C)C [all-trans-retinolacetate]
[1]
  RPF known for standard antioxidation agents: 196 ×10^14 radicals/mg

## O=C1O[C@H]([C@@H](O)CO)C([O-])=C1OP(=O)([O-])[O-].[Na+].[Na+].[Na+] [natrium-ascorbyl-phosphate]
[2]; radical scavenger as such, ESR
  RPF (radical protection factor): 35000 ×10^14 radicals/mg

## O=C(/C=C/c1ccc(O)c(O)c1)O[C@H](Cc1ccc(O)c(O)c1)C(=O)O [rosemary acid]
[2]; radical scavenger as such, ESR
  RPF (radical protection factor): 36000-68000 ×10^14 radicals/mg

## O=C(OC[C@H]1O[C@@H](OC(=O)c2cc(O)c(O)c(OC(=O)c3cc(O)c(O)c(O)c3)c2)[C@H](OC(=O)c2cc(O)c(O)c(OC(=O)c3cc(O)c(O)c(O)c3)c2)[C@@H](OC(=O)c2cc(O)c(O)c(OC(=O)c3cc(O)c(O)c(O)c3)c2)[C@@H]1OC(=O)c1cc(O)c(O)c(OC(=O)c2cc(O)c(O)c(O)c2)c1)c1cc(O)c(O)c(OC(=O)c2cc(O)c(O)c(O)c2)c1 [tannic acid]
[2]; radical scavenger as such, ESR
  RPF (radical protection factor): 310000 ×10^14 radicals/mg

## CC(=O)Oc1c(C)c(C)c2c(c1C)CCC(C)(CCC[C@H](C)CCC[C@H](C)CCCC(C)C)O2 (stereo partly drawn) [α-tocopherylacetate]
[1]
  RPF known for standard antioxidation agents: 48 ×10^14 radicals/mg

## cyclodextrines
[2]; unit not given
  RPF (radical protection factor): 0
